The target of data set [1] is T1, Zymomonas mobilis ribitol dehydrogenase (SEQ ID NO: 4) variant S156E (Zymomonas mobilis, UniProt Q5NQS1, S229E).
T1 sequence (Q5NQS1 74-338 S229E): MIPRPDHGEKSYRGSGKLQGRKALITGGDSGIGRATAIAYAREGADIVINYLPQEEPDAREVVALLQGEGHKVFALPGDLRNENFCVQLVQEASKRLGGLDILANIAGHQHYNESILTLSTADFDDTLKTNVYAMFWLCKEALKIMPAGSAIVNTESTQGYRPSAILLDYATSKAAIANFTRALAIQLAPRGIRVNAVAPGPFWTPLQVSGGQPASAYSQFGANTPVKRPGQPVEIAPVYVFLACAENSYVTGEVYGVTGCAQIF
In words: Dynamical parameters to coenzyme, variant S156E. Type of data set: biochemical. The source says: (§1) There were no differences between the expression amount of various amino acid variants of Ser 156 and the expression amount of wide-type. The dynamical parameter of each of variants was confirmed using the above variants.

The target of data set [2] is T2, Zymomonas mobilis ribitol dehydrogenase (SEQ ID NO: 4) variant S156W (Zymomonas mobilis, UniProt Q5NQS1, S229W).
T2 sequence (Q5NQS1 74-338 S229W): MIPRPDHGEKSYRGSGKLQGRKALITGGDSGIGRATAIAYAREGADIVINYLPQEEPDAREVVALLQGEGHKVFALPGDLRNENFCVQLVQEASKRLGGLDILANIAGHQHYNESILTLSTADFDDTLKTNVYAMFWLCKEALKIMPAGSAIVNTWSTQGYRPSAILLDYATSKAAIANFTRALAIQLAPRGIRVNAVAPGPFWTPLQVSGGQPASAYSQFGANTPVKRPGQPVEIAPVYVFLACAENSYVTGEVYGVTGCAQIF
Description: Dynamical parameters to coenzyme, variant S156W. In kind it is biochemical.
Excerpt: as §1

In data set [3] the target is T3, Zymomonas mobilis ribitol dehydrogenase, wild-type, SEQ ID NO: 4 (Zymomonas mobilis, UniProt Q5NQS1).
T3 sequence (Q5NQS1 74-338): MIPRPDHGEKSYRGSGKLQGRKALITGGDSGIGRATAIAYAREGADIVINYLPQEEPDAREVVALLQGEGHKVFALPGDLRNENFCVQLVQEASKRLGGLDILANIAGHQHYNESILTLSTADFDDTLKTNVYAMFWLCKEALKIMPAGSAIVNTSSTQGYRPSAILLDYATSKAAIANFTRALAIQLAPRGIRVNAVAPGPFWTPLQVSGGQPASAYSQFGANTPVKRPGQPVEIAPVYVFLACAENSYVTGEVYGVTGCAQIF
Description: Dynamical (kinetic) parameters of ribitol dehydrogenase to coenzyme NAD(H)/NADP(H), wild-type. In kind it is biochemical.
Description: (§2) The optimum pH on dehydrogenation activity of the ribitol dehydrogenase was measured using 20 mM of Tris-HCl buffer. The enzyme activity was determined by monitoring the change per minute in absorbance at 340 nm while the sample was reacted in the presence of NAD(H) and ribitol.
Then, dynamical parameters were measured through a nonlinear regression analysis.

For data set [4], the target named is T4, Zymomonas mobilis ribitol dehydrogenase (SEQ ID NO: 4) variant S156C (Zymomonas mobilis, UniProt Q5NQS1, S229C).
T4 sequence (Q5NQS1 74-338 S229C): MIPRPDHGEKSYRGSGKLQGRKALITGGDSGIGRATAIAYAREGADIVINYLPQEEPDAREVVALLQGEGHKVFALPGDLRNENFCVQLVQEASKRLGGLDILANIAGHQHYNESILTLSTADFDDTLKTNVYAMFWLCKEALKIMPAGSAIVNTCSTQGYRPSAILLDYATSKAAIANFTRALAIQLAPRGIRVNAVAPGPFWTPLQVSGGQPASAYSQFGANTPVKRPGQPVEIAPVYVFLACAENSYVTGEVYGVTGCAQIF
Description: Dynamical parameters to coenzyme, variant S156C. In kind it is biochemical.
Excerpt: as §1

Data set [5] concerns the target T5, Zymomonas mobilis ribitol dehydrogenase (SEQ ID NO: 4) variant S156D, SEQ ID NO: 5 (Zymomonas mobilis, UniProt Q5NQS1, N321D/S229D).
T5 sequence (Q5NQS1 74-338 S229D/N321D): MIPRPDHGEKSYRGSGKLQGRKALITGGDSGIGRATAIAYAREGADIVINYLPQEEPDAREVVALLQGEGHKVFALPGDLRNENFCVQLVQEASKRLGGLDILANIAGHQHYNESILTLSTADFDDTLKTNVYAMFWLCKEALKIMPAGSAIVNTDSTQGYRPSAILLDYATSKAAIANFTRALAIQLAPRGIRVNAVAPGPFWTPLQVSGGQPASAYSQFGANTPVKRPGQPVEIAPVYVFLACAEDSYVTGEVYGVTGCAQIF
Description: Dynamical parameters to coenzyme, variant S156D. Type of data set: biochemical.
Excerpt: In addition, the present invention provides a ribitol dehydrogenase mutant selected from the group consisting of a) a mutant, in which serine, an amino acid at position 156 of the ribitol dehydrogenase having an amino acid sequence as set forth in SEQ ID NO: 4 is substituted with aspartic acid; and b) a mutant, in which tyrosine, an amino acid at position 51 of the ribitol dehydrogenase having an amino acid sequence as set forth in SEQ ID NO: 4 is substituted with aspartic acid and serine, an amino acid at position 156 is substituted with alanine.
The mutants have preferably amino acid sequences as set forth in SEQ ID NOS: 5 and 6, respectively, but the present invention is not limited thereto.
as §1

For data set [6], the target named is T6, Zymomonas mobilis ribitol dehydrogenase (SEQ ID NO: 4) variant S156T (Zymomonas mobilis, UniProt Q5NQS1, S229T).
T6 sequence (Q5NQS1 74-338 S229T): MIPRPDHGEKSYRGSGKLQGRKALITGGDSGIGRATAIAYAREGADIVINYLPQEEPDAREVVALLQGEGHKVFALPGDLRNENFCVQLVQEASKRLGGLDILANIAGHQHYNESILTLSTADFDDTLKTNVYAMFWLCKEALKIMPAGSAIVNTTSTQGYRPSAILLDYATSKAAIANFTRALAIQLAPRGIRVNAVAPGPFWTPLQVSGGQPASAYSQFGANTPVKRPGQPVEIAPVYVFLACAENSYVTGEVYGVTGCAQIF
Description: Dynamical parameters to coenzyme, variant S156T. Type of data set: biochemical.
Excerpt: as §1

Data set [7] concerns the target T7, Zymomonas mobilis ribitol dehydrogenase (SEQ ID NO: 4) variant S156A (Zymomonas mobilis, UniProt Q5NQS1, S229A).
T7 sequence (Q5NQS1 74-338 S229A): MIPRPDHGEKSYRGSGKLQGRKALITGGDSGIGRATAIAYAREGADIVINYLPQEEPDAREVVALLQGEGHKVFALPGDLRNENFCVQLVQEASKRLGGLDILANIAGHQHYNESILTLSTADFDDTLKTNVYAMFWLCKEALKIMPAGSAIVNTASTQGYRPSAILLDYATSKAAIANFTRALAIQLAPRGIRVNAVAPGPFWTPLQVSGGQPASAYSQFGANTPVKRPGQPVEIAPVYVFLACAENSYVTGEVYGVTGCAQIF
In words: Dynamical parameters to coenzyme, variant S156A. In kind it is biochemical.
Excerpt: as §1

The target of data set [8] is T8, Zymomonas mobilis ribitol dehydrogenase (SEQ ID NO: 4) variant S156Y (Zymomonas mobilis, UniProt Q5NQS1, S229Y).
T8 sequence (Q5NQS1 74-338 S229Y): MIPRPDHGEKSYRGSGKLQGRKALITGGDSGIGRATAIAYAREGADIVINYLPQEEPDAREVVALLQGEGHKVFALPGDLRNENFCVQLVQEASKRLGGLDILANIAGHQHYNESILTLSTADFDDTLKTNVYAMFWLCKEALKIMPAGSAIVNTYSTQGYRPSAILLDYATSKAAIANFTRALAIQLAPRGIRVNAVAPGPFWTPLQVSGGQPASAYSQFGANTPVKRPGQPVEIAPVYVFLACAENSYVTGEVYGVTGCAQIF
Description: Dynamical parameters to coenzyme, variant S156Y. Type of data set: biochemical.
Excerpt: as §1

For data set [9], the target named is T9, Zymomonas mobilis ribitol dehydrogenase (SEQ ID NO: 4) variant S156G (Zymomonas mobilis, UniProt Q5NQS1, S229G).
T9 sequence (Q5NQS1 74-338 S229G): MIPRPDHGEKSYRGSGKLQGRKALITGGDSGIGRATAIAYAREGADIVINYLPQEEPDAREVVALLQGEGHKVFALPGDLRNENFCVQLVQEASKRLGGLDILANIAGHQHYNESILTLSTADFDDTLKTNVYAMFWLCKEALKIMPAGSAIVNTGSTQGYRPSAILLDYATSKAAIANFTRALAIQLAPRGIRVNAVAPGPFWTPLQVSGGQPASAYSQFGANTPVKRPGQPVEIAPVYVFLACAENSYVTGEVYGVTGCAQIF
In words: Dynamical parameters to coenzyme, variant S156G. In kind it is biochemical.
Excerpt: as §1

Substrate in data set [10]: NC(=O)c1ccc[n+]([C@@H]2O[C@H](COP(=O)(O)OP(=O)(O)OC[C@H]3O[C@@H](n4cnc5c(N)ncnc54)[C@H](OP(=O)(O)O)[C@@H]3O)[C@@H](O)[C@H]2O)c1
Description: purified protein, by the assay type. To be noted: ribitol, wild-type, pH 9.0.

For data set [11] the following is noted: coenzyme NADP(H).
Description: as §2
A short description of data set [12]: Production of L-ribulose from ribitol with cell bodies of recombinant strains expressing the variants. The conditions noted are these: whole cells; 20 mM Tris-HCl buffer pH 9.5; 25° C.; 6 hours; HPLC. Type of data set: cell-based, E. coli. As for the experimental part:
The following experiments were performed in order to produce L-ribulose using a ribitol dehydrogenase variant having double coenzyme specificity. The variants prepared by using the method of Example 5-3 were expressed using the method of Example 2; the cell bodies were only collected by centrifuging (8000×g for 10 minutes) the recombinant strain culture solution; and then the cell bodies were washed with distilled water twice. The final Cell OD was measured and the same amount of cells was used for a production experiment. The ribitol and each of recombinant enzyme variants were subjected to an enzyme reaction in 20 mM of Tris-HCl buffer (pH 9.5) at a temperature of 25° C. for 6 hours.

Data set [13] in a line: Optimum pH on dehydrogenation activity of the ribitol dehydrogenase. To be noted: 20 mM Tris-HCl buffer; NAD(H) and ribitol; absorbance at 340 nm. Type of data set: biochemical. The source says:
Physicochemical properties of the ribitol dehydrogenase isolated in Example 4 were investigated using ribitol as a substrate.

The conditions of data set [14]: coenzyme NAD(H).
Description: as §2
Where [15] appears, read: read-out: Km, NAD, NAD 0.01 to 3 mM.
[16] abbreviates: other: NADP(H) 0.1 to 2 mM, 20 mM Tris-HCl, 340 nm.

Where two headings read alike, the source gives them in different places.

Consider `NC(=O)c1ccc[n+]([C@@H]2O[C@H](COP(=O)(O)OP(=O)(O)OC[C@H]3O[C@@H](n4cnc5c(N)ncnc54)[C@H](O)[C@@H]3O)[C@@H](O)[C@H]2O)c1` [NAD^+, nicotinamide adenine dinucleotide], for which the “kcat (NAD^+)” value is 2.06 ± 0.07 s⁻¹ in data set [1] (NAD 0.01 to 3 mM); 2.62 ± 0.11 s⁻¹ in [2] (NAD 0.01 to 3 mM); 4.83 ± 0.51 s⁻¹ in [3] (NAD 0.01 to 3 mM); 2.00 ± 0.09 s⁻¹ in data set [4] (NAD 0.01 to 3 mM); 1.79 ± 0.01 s⁻¹ in data set [5] (NAD 0.01 to 3 mM); 2.85 ± 0.10 s⁻¹ in data set [6] (NAD 0.01 to 3 mM). In addition, the “kcat (NAD^+)” value in data set [7] (NAD 0.01 to 3 mM) was found to be 1.93 ± 0.16 s⁻¹; in data set [8] (NAD 0.01 to 3 mM), 1.60 ± 0.13 s⁻¹; in data set [9] (NAD 0.01 to 3 mM), 1.04 ± 0.02 s⁻¹. The Km in data set [1] (setting [15]) is 50 ± 3 µM; in data set [2] (setting [15]) it was 160 ± 20 µM; in data set [3] (setting [15]), 180 ± 20 µM; in data set [3] (read-out: Km, NAD, NAD(H) 0.1 to 2 mM, 20 mM Tris-HCl, 340 nm), about 180 µM; in data set [4] (setting [15]), 100 ± 20 µM; in [5] (setting [15]), 20 ± 2 µM. In addition, the Michaelis-Menten constant (Km) in [6] (setting [15]) is 210 ± 60 µM; in data set [7] (setting [15]) it was 190 ± 20 µM; in data set [8] (setting [15]), 150 ± 10 µM; in data set [9] (setting [15]) it was 140 ± 10 µM. Moreover, in data set [3] (NAD(H) 0.1 to 2 mM, 20 mM Tris-HCl, 340 nm), the “kcat (NAD(H))” value is “about 4.84 s^−1”.

B1: Zymomonas mobilis ribitol dehydrogenase, wild-type, SEQ ID NO: 4 (Zymomonas mobilis subsp. mobilis ZM4 = ATCC 31821) (protein)
chain: MIPRPDHGEKSYRGSGKLQGRKALITGGDSGIGRATAIAYAREGADIVINYLPQEEPDAREVVALLQGEGHKVFALPGDLRNENFCVQLVQEASKRLGGLDILANIAGHQHYNESILTLSTADFDDTLKTNVYAMFWLCKEALKIMPAGSAIVNTSSTQGYRPSAILLDYATSKAAIANFTRALAIQLAPRGIRVNAVAPGPFWTPLQVSGGQPASAYSQFGANTPVKRPGQPVEIAPVYVFLACAENSYVTGEVYGVTGCAQIF
With B1, in data set [10] (other: NADP 0.01 to 3 mM), the Michaelis-Menten constant (Km) amounted to 260 ± 20 µM, the kcat came out at 2.79 s⁻¹ and the catalytic efficiency (kcat/Km) stood at 10800 M⁻¹ s⁻¹. In addition, in data set [10] (setting [16]), the Km was determined as 260 µM and the turnover number (kcat) was found to be 2.79 s⁻¹. Moreover, the “Relative activity (%), NADP(H)” value in data set [11] is listed as 42.9%. Besides, in [12], the “L-ribulose produced, concentration” value was 0.80 g/L. The “optimum pH” value in [13] stood at 9.5. In addition, the “Relative activity (%), NAD(H)” value in [14] came out at 100%.

The Km is the substrate concentration at which the rate is half of its maximum. As a reminder, the kcat is the maximal rate divided by the concentration of active sites. In general, kcat/Km refers to the second-order rate constant that governs catalysis at low substrate concentration.
